Results taken from patent US20230083012A1, “DIHYDROPYRIMIDINE DERIVATIVES AND USES THEREOF IN THE TREATMENT OF HBV INFECTION OR OF HBV-INDUCED DISEASES” (priority 2019, published 2023).
Where two headings read alike, the source gives them in different places.

Assays:
[1] = Cytotoxicity determination in HepG2.2.15 cells (CCK-8 cell viability); format: cell-based; settings: human, 6 days treatment, CCK-8 assay, highest concentration 100 uM
In short: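 HepG2.2.15 cells seeded at 5,000 cells/well in 2% FBS medium, exposed 6 days to compounds (8-point 1:3 dilutions from 100 uM, triplicate), refreshed at day 3. Viability read by CCK-8 after 2.5 h at 37° C, absorbance 450 nm with 630 nm reference; CC50 calculated.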

[2] = system: HBV; experiment: Anti-HBV activity in HepG2.2.15 cells (HBV DNA in culture medium by qPCR); format: cell-based; settings: Hepatitis B virus, HepG2.2.15, 144 h
In short: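 HepG2.2.15 cells in 2% FBS medium at 37 °C were treated with compounds for 6 days, with medium and compound refreshed at day 3; 1:3 dilutions, 8 concentrations in triplicate, top 10 or 1 uM. HBV DNA in culture medium quantified by qPCR to derive EC50; CC50 from parallel plates (top 100 uM).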

[3] = HepG2.2.15 cells, 6 days treatment, HBV DNA in culture medium quantified by real-time PCR, read-out: EC50

Compound | CC50 at 6 days [1] [nM] | EC50 [2, 3] [nM] | EC50 [2] [nM]
COC(=O)C1=C(CN2CC(F)(F)[C@@H]3CN(C(=O)C(C)(C)C(=O)O)C[C@@H]32)NC(c2nccs2)=N[C@H]1c1cccc(F)c1Cl (single isomer, unassigned) [Compound 206, 3-((cis)-1-((6-(2-chloro-3-fluorophenyl)-5-(methoxycarbonyl)-2-(thiazol-2-yl)-3,6-dihydropyrimidin-4-yl)methyl)-3,3-difluorohexahydropyrrolo[3,4-b]pyrrol-5(1H)-yl)-2,2-dimethyl-3-oxopropanoic acid] | > 100000 | 39.3 | 
CCOC(=O)C1=C(CN2CC(F)(F)[C@@H]3CN(C(=O)C(C)(C)C(=O)O)C[C@@H]32)NC(c2nccs2)=N[C@H]1c1cccc(F)c1Cl (single isomer, unassigned) [Compound 207, 3-((cis)-1-((6-(2-chloro-3-fluorophenyl)-5-(ethoxycarbonyl)-2-(thiazol-2-yl)-3,6-dihydropyrimidin-4-yl)methyl)-3,3-difluorohexahydropyrrolo[3,4-b]pyrrol-5(1H)-yl)-2,2-dimethyl-3-oxopropanoic acid] | > 50000 | 59 | 
COC(=O)C1=C(CN2CC(F)(F)[C@@H]3CN(C(=O)C(C)(C)C(=O)O)C[C@@H]32)NC(c2nccs2)=N[C@H]1c1ccc(F)cc1Cl (single isomer, unassigned) [Compound 208, 3-((cis)-1-((6-(2-chloro-4-fluorophenyl)-5-(methoxycarbonyl)-2-(thiazol-2-yl)-3,6-dihydropyrimidin-4-yl)methyl)-3,3-difluorohexahydropyrrolo[3,4-b]pyrrol-5(1H)-yl)-2,2-dimethyl-3-oxopropanoic acid] | > 100000 | 28.6 | 
COC(=O)C1=C(CN2CC[C@]3(F)C(=O)N(CC(C)(C)C(=O)O)C[C@H]23)NC(c2nccs2)=N[C@H]1c1ccc(F)c(F)c1Cl (single isomer, unassigned) [Compound 209A, 3-((cis)-1-((6-(2-chloro-3,4-difluorophenyl)-5-(methoxycarbonyl)-2-(thiazol-2-yl)-3,6-dihydropyrimidin-4-yl)methyl)-3a-fluoro-4-oxohexahydropyrrolo[3,4-b]pyrrol-5(1H)-yl)-2,2-dimethylpropanoic acid] | 23300 | 19.1 | 
CCOC(=O)C1=C(CN2CC[C@]3(F)C(=O)N(CCC(C)(C)C(=O)O)C[C@H]23)NC(c2nccs2)=N[C@H]1c1cccc(F)c1C (single isomer, unassigned) [Compound 210B] | 48700 | 97.7 | 
CCOC(=O)C1=C(CN2CC(F)(F)C3C(=O)N(CC(C)(C)C(=O)O)C[C@@H]32)NC(c2nccs2)=N[C@@H]1c1ccc(Cl)c(F)c1 (single isomer, unassigned) [Compound 211, 3-((cis)-1-((6-(4-chloro-3-fluorophenyl)-5-(ethoxycarbonyl)-2-(thiazol-2-yl)-3,6-dihydropyrimidin-4-yl)methyl)-3,3-difluoro-4-oxohexahydropyrrolo[3,4-b]pyrrol-5(1H)-yl)-2,2-dimethylpropanoic acid] | > 50000 | 36 | 
CCOC(=O)C1=C(CN2CCC3(F)C(=O)N(CC(C)(C)C(=O)O)CC23)NC(c2nccs2)=N[C@H]1c1cccc(F)c1C (stereo in doubt) [Compound 3, 3-((cis)-1-(((S)-5-(ethoxycarbonyl)-6-(3-fluoro-2-methylphenyl)-2-(thiazol-2-yl)-3,6-dihydropyrimidin-4-yl)methyl)-3a-fluoro-4-oxohexahydropyrrolo[3,4-b]pyrrol-5(1H)-yl)-2,2-dimethylpropanoic acid] | 63100 | 20.2 | 
CCOC(=O)C1=C(CN2CC(F)(F)C3C2CCN3CC(=O)O)NC(c2nccs2)=N[C@H]1c1cccc(F)c1C (stereo in doubt) [Compound 6, 2-((cis)-4-(((S)-5-(ethoxycarbonyl)-6-(3-fluoro-2-methylphenyl)-2-(thiazol-2-yl)-3,6-dihydropyrimidin-4-yl)methyl)-6,6-difluorohexahydropyrrolo-[3,2-b]pyrrol-1(2H)-yl)acetic acid] | 37200 | 10.4 | 
CCOC(=O)C1=C(CN2CC(F)(F)C3CN(C(=O)C(C)(C)C(=O)O)CC32)NC(c2nccs2)=N[C@H]1c1cccc(F)c1C (stereo in doubt) [Compound 9, (cis)-3-(1-(((S)-5-(Ethoxycarbonyl)-6-(3-fluoro-2-methylphenyl)-2-(thiazol-2-yl)-3,6-dihydropyrimidin-4-yl)methyl)-3,3-difluorohexahydropyrrolo[3,4-b]pyrrol-5(1H)-yl)-2,2-dimethyl-3-oxopropanoic acid] | 76300 | 41.7 | 
CCOC(=O)C1=C(CN2CC(F)(F)C3CN(CC(C)(C)C(=O)O)CC32)NC(c2nccs2)=N[C@H]1c1cccc(F)c1C (stereo in doubt) [Compound 12, (cis)-3-(1-(((S)-5-(ethoxycarbonyl)-6-(3-fluoro-2-methylphenyl)-2-(thiazol-2-yl)-3,6-dihydropyrimidin-4-yl)methyl)-3,3-difluorohexahydropyrrolo[3,4-b]pyrrol-5(1H)-yl)-2,2-dimethylpropanoic acid] | 56700 | 32.4 | 
CCOC(=O)C1=C(CN2CC(F)(F)C3CN(C(C)C(=O)O)CC32)NC(c2nccs2)=N[C@H]1c1cccc(F)c1C (stereo in doubt) [Compound 14, 2-((cis)-1-(((S)-5-(Ethoxycarbonyl)-6-(3-fluoro-2-methylphenyl)-2-(thiazol-2-yl)-3,6-dihydropyrimidin-4-yl)methyl)-3,3-difluorohexahydropyrrolo[3,4-b]pyrrol-5(1H)-yl)propanoic acid] | > 100000 | 137 | 
CCOC(=O)C1=C(CN2CC(F)(F)C3CN(CC(C)C(=O)O)CC32)NC(c2nccs2)=N[C@H]1c1cccc(F)c1C (stereo in doubt) [Compound 15, 3-((cis)-1-(((S)-5-(ethoxycarbonyl)-6-(3-fluoro-2-methylphenyl)-2-(thiazol-2-yl)-3,6-dihydropyrimidin-4-yl)methyl)-3,3-difluorohexahydropyrrolo[3,4-b]pyrrol-5(1H)-yl)-2-methylpropanoic acid] | > 100000 | 60.3 | 
CCOC(=O)C1=C(CN2CC(F)(F)[C@@H]3[C@H]2CN(C(=O)C(F)(F)F)N3CCC(C)(C)C(=O)O)NC(c2nccs2)=N[C@H]1c1cccc(F)c1C (stereo in doubt) [Compound 71, 4-((cis)-4-(((S)-5-(ethoxycarbonyl)-6-(3-fluoro-2-methylphenyl)-2-(thiazol-2-yl)-3,6-dihydropyrimidin-4-yl)methyl)-6,6-difluoro-2-(2,2,2-trifluoroacetyl)hexahydropyrrolo[3,2-c]pyrazol-1(2H)-yl)-2,2-dimethylbutanoic acid] | 20900 |  | 29
CCOC(=O)C1=C(CN2CC(F)(F)C3C2CCN3CC(C)(C)C(=O)O)NC(c2nccs2)=N[C@H]1c1cccc(F)c1C (stereo partly drawn) [Compound 1, 3-(4-(((S)-5-(ethoxycarbonyl)-6-(3-fluoro-2-methylphenyl)-2-(thiazol-2-yl)-3,6-dihydropyrimidin-4-yl)methyl)-6,6-difluorohexahydropyrrolo[3,2-b]pyrrol-1(2H)-yl)-2,2-dimethylpropanoic acid] | 24800 | 10.6 | 
CCOC(=O)C1=C(CN2CC(F)(F)C3CC(C(=O)O)CC32)NC(c2nccs2)=N[C@H]1c1cccc(F)c1C (stereo partly drawn) [Compound 2, (cis)-1-(((S)-5-(ethoxycarbonyl)-6-(3-fluoro-2-methylphenyl)-2-(thiazol-2-yl)-3,6-dihydropyrimidin-4-yl)methyl)-3,3-difluorooctahydrocyclo-penta[b]pyrrole-5-carboxylic acid] | 26700 | 4.1 | 
CCOC(=O)C1=C(CN2CCC3C(=O)N(CC(C)(C)C(=O)O)C(=O)C32)NC(c2nccs2)=N[C@H]1c1cccc(F)c1C (some centres unmarked) [Compound 4] | 47800 | 56.4 | 
CCOC(=O)C1=C(CN2CC(F)(F)C3C(=O)N(CC(C)(C)C(=O)O)CC32)NC(c2nccs2)=N[C@H]1c1cccc(F)c1C (some centres unmarked) [Compound 5] | 90100 | 22.7 | 
CCOC(=O)C1=C(CN2CC(F)C3C2CCN3CC(C)(C)C(=O)O)NC(c2nccs2)=N[C@H]1c1cccc(F)c1C (stereo partly drawn) [Compound 11, 3-(4-(((S)-5-(ethoxycarbonyl)-6-(3-fluoro-2-methylphenyl)-2-(thiazol-2-yl)-3,6-dihydropyrimidin-4-yl)methyl)-6-fluorohexahydropyrrolo[3,2-b]pyrrol-1(2H)-yl)-2,2-dimethylpropanoic acid] | 37300 | 70.3 | 
CCOC(=O)C1=C(CN2CC(F)(F)C3CN(CC(C)(C)C(=O)O)C(=O)C32)NC(c2nccs2)=N[C@H]1c1cccc(F)c1C (some centres unmarked) [Compound 13] | 50000 | 8.4 | 
CCOC(=O)C1=C(CN2CC(F)(F)C3CN(CC4(C(=O)O)CC4)CC32)NC(c2nccs2)=N[C@H]1c1cccc(F)c1C (some centres unmarked) [Compound 16] | 37200 | 112 | 
CCOC(=O)C1=C(CN2CCC3C(=O)N(CC(C)(C)C(=O)O)CC32)NC(c2nccs2)=N[C@H]1c1cccc(F)c1C (some centres unmarked) [Compound 25] | 95500 | 95.2 | 
CCOC(=O)C1=C(CN2CC(F)(F)C3C2CCN3NCC(C)(C)C(=O)O)NC(c2nccs2)=N[C@H]1c1cccc(F)c1C (some centres unmarked) [Compound 27] | 13900 | 42 | 
